These results are taken from patent publication EP0392326B1, “Dichloro-substituted imidazole derivatives as antifungal agents” (SOCIEDAD ESPANOLA DE ESPECIALIDADES FARMACO-TERAPEUTICAS, …, priority 1989, dated 1990).

Data set [1] concerns Candida tropicalis CECT 1440. Put plainly: In vitro activity against Candida tropicalis CECT 1440 (MIC and RIF). The format is cell-based. The note with it: for RIF: Relative Inhibition Factor, Candida tropicalis CECT 1440; for activity compared with Clotrimazole: applicant's own tests, illustrated by the table of Example 3. From the text:
In vitro activity against Candida tropicalis CECT 1440.
This pharmacological test allows a comparison of the activities of the two products of the present invention (WAS 2160 and WAS 2169) with the activities of the structurally closest described product (SQ 80896), the structurally closest commercial product (Clotrimazole) and the analogue product without the seven-membered ring (WAS 2162). MIC (Minimum Inhibitory Concentration, in […]) and RIF (Relative Inhibition Factor) parameters were determined in a standard way, obtaining the results of the table (WAS 2162 is the nitric acid salt of 1-[(2,4-dichlorophenyl)phenylmethyl]-1H-imidazole, prepared at our laboratory).

Another data set relates to C. albicans. Put plainly: In vitro MIC, progressive double dilutions in liquid medium. The format is cell-based. On the set-up: unit not given here. To be noted: Sabouraud broth with gentamycin. As to the method:
(§1) In vitro ativity against 116 strains of yeasts and 45 strains of dermatophytes
(§2) MIC-s were determined by the method of progressive double dilutions in a liquid medium, using sterile microplates. The culture medium used was the Sabouraud broth with gentamycin (100 mg/1000 mL).

A further data set concerns C. parapsilosis. Described as above. The format is cell-based. Also on record: unit not given here. To be noted: Sabouraud broth with gentamycin. As for the experimental part:
as §1, §2

The test system of another data set is C. tropicalis. The data set is described as above. On the set-up: unit not given here. The note with it: Sabouraud broth with gentamycin. The format is cell-based. As for the experimental part:
as §1, §2

A further data set deals with M. gypseum. The description is as above. The format is cell-based. Also on record: unit not given here. To be noted: Sabouraud broth with gentamycin. As to the method:
as §1, §2

A further data set deals with C. Krusei. Described as above. The format is cell-based. To be noted: Sabouraud broth with gentamycin. As for the experimental part:
as §1, §2

For the next data set, the system named is Epidermophyton floccosum. The data set is described as above. The format is cell-based. The note with it: Sabouraud broth with gentamycin. As for the experimental part:
as §1, §2

A further data set has as its system Microsporum canis. The data set is described as above. The format is cell-based. To be noted: Sabouraud broth with gentamycin. As to the method:
as §1, §2

Another data set has as its system T. tonsurans. The data set is described as above. The format is cell-based. The note with it: Sabouraud broth with gentamycin. As to the method:
as §1, §2

For another data set, the system named is Torulopsis glabrata. Described as above. The format is cell-based. To be noted: Sabouraud broth with gentamycin. As for the experimental part: as §1, §2
In a further data set the test system is Trich. rubrum. The data set is described as above. The format is cell-based. To be noted: Sabouraud broth with gentamycin. As for the experimental part: as §1, §2
The next data set deals with Trichoph. mentagrophytes. The description is as above. The format is cell-based. To be noted: Sabouraud broth with gentamycin. As for the experimental part:
as §1, §2

A further data set deals with candidiosis. The data set is described as follows: In vivo antifungal activity against candidiosis. The note with it: guinea pig candidiosis, double-blind. As to the method:
In vivo test of antifungal activity against candidiosis in guinea pig
A double-blind comparative test was carried out with WAS 2160 and Clotrimazole, with the following results: […]

The subject of data set [2] is Malassezia furfur (Pytiosporum). The data set is described as follows: In vitro test against 30 strains of Malassezia furfur. The format is cell-based. To be noted: for % of strains with PIC lower than 40 »g/mL: PIC = Partial Inhibitory Concentration: growth inhibition greater than 50% in relation to controls. As for the experimental part:
In vitro test against 30 strains of Malassezia furfur (Pytiosporum)
A double-blind comparative test was carried out with WAS 2160, Clotrimazole and Bifonazole, with the results of the table. (PIC = Partial Inhibitory Concentration: growth inhibition greater than 50% in relation to controls).

For data set [3], the system named is Trichophyton mentagrophytes. The data set is described as follows: In vivo protection against experimentally-induced dermatophytosis. To be noted: guinea pig, double-blind. As for the experimental part: In vivo tests of protection against experimentally-induced dermatophytosis in the guinea pig, caused by Trichophyton mentagrophytes.
Two double-blind comparative tests were carried out, with the following results: […]

The nature of data set [4]: Tolerance test in rabbits (eye, skin, vagina). The format is in vivo. To be noted: skin and vagina. From the text: Tolerance test of WAS 2160 in rabbits
For the next data set, the system named is Candida albicans. To be noted: data of US 4.420.474 Table I; cited from earlier work.

With `Clc1ccccc1C(c1ccccc1)(c1ccccc1)n1ccnc1` [Clotrimazole], in data set [1], the RIF came out at 43.05. Also, the MIC against C. albicans is reported as 2,43; in the data set on C. parapsilosis, 2,36; against C. tropicalis, 3,51; against M. gypseum it was 0,97; in the data set on C. Krusei, 6,18; against Epidermophyton floccosum it was 0,09. Further, the MIC against Microsporum canis is 2,69; against T. tonsurans, 0,90; against Torulopsis glabrata, 6,29; in the data set on Trich. rubrum, 0,31; against Trichoph. mentagrophytes it was 0,23. Besides, the “% of animals with total clin. healing” value in the data set with candidiosis was determined as 30%. Besides, the “% of negative cultures after treatment” value with candidiosis came out at 100%. The “% of strains with MIC lower than 40 »g/mL” value in data set [2] is 33%. Also, in [2], the “% of strains with PIC lower than 40 »g/mL” value is recorded as 56%.
As for `Clc1cc(Cl)c2c(c1)C=Cc1ccccc1C2n1ccnc1.O=[N+]([O-])O` (racemic) [WAS 2169, 1-(2,4-dichloro-5H-dibenzo[a,d]cyclohepten-5-yl)-1H-imidazole nitrate], the RIF in data set [1] was determined as 54.94. Moreover, the MIC against C. albicans was 1,98; against C. parapsilosis, 1,08; in the data set on C. tropicalis, 7,58; in the data set with M. gypseum, 0,08; in the data set with C. Krusei, 5,61; with Microsporum canis it was 0,06. In addition, the figures for the MIC with Torulopsis glabrata, against Trich. rubrum and in the data set with Trichoph. mentagrophytes were 6,33, 0,30 and 0,17, respectively. Further, the “% of negative cultures after treatment” value in data set [3] (test II) was 81,8%.
Take `c1ccc(-c2ccc(C(c3ccccc3)n3ccnc3)cc2)cc1` (centres unmarked) [Bifonazole]: the MIC against C. albicans was 12,10; with C. parapsilosis it was 58,97; in the data set on C. tropicalis, 72,67; against M. gypseum, 6,25; against C. Krusei, 50,50; in the data set on Epidermophyton floccosum it was 0,02. Moreover, the MIC with Microsporum canis is listed as 3,12; against T. tonsurans, 1,20; in the data set on Torulopsis glabrata, 14,88; in the data set on Trich. rubrum, 1,19; in the data set with Trichoph. mentagrophytes it was 1,48. The “% of negative cultures after treatment” value was 39 % (test I) in data set [3] (test I) and 0 % (test II) in data set [3] (test II). Moreover, the “% of strains with MIC lower than 40 »g/mL” value in [2] was 83%. Also, the “% of strains with PIC lower than 40 »g/mL” value in data set [2] was 50%.
`Clc1cc(Cl)c2c(c1)CCc1ccccc1C2n1ccnc1.O=[N+]([O-])O` (racemic) [WAS 2160, 1-(2,4-Dichloro-10,11-dihydro-5H-dibenzo[a,d]cyclohepten-5-yl)-1H-imidazole nitrate] registered an RIF in [1] of 39.31. In addition, the MIC was 2,25 in the data set with C. albicans; 2,06 in the data set on C. parapsilosis; 3,44 with C. tropicalis; 1,05 with M. gypseum; 3,17 against C. Krusei; 0,32 with Epidermophyton floccosum. Also, the MIC against Microsporum canis was 0,39; against T. tonsurans it was 0,19; against Torulopsis glabrata it was 1,25; against Trich. rubrum, 0,54; with Trichoph. mentagrophytes it was 0,17. Also, the figures for the “% of negative cultures after treatment” value (in data set [3] (test I); with candidiosis) were 50% and 100%, respectively. The “% of animals with total clin. healing” value with candidiosis is 60%. Also, in [2], the “% of strains with MIC lower than 40 »g/mL” value came out at 40%. Also, in [2], the “% of strains with PIC lower than 40 »g/mL” value turned out to be 60%. Also, the Tolerance entry in data set [4] is “innocuous and totally tolerated by the eye, the skin and the vagina”.
For the compound `Clc1ccc2c(c1)C(n1ccnc1)c1ccccc1CC2` (centres unmarked) [SQ 80896, 1-(3-chloro-10,11-dihydro-5H-dibenzo[a,d]dicyclohepten-5-yl)-1H-imidazole], in data set [1], the RIF is given as 83.96 and the “activity compared with Clotrimazole” value was “considerably less active than Clotrimazole”. Also, the “activity compared with Clotrimazole (MIC parameters)” value in the data set with Candida albicans is reported as “considerably less active than Clotrimazole”.
As for `Clc1ccc(C(c2ccccc2)n2ccnc2)c(Cl)c1` (centres unmarked) [WAS 2162, 1-[(2,4-dichlorophenyl)phenylmethyl]-1H-imidazole], in data set [1], the RIF is 94.47 and the “activity compared with Clotrimazole” value is “considerably less active than Clotrimazole”.
